Patent US20060210500A1, “Formulations” (MERCK PATENT GMBH, priority 2003, published 2006)

Experiments:
[1] = over the entire pH range; cited from earlier work
[2] = system: Aspergillus niger ATCC 16404; assay: challenge test, germ count by Agar plates method; type: cell-based; details: 8% aqueous suspension
Experimental: (§1) A standard procedure to measure the anti-microbial activity of substances was used (challenge tests). A suspension of test organisms (10^5 to 10^6 germs/ml) is inoculated into a recipient containing already the substance to be tested. Samples of the inoculated suspension are taken and the number of germs is measured thanks to the Agar plates method. Germ counts is performed at t=0, t=24 h after the inoculation, t=48 h after the inoculation, t=7 days after the inoculation, t=14 days after the inoculation.
(§2) Sterile water containing 8% w/w of treated and untreated carriers were each investigated.

[3] = system: Candida albicans ATCC 10231; assay: challenge test, germ count by Agar plates method; type: cell-based; details: 8% aqueous suspension
Experimental: as §1, §2

Escheria coli ATCC8739 = assay: challenge test, germ count by Agar plates method; type: cell-based; details: 8% aqueous suspension
Experimental: as §1, §2

[4] = system: Pseudomonas aeruginosa ATCC 9027; assay: challenge test, germ count by Agar plates method; type: cell-based; details: 8% aqueous suspension
Experimental: as §1, §2

[5] = system: Staphylococcus aureus ATCC 6538; assay: challenge test, germ count by Agar plates method; type: cell-based; details: 8% aqueous suspension
Experimental: as §1, §2

For `O=c1c(O)c(-c2ccc(O)c(O)c2)oc2cc(O)cc(O)c12` [Quercetin, 3,3′,4′,5,7-pentahydroxyflavone], the antioxidant action [1] is listed as “the greatest activity amongst the structures investigated”.
In the case of silver oxide [0.02% Ag2O], the “Germs Number/ml after 24 h” value ([2]; 24 h after inoculation) is reported as 3.5 · 10^5 germs/ml, the “Germs Number/ml after 48 h” value ([2]; 48 h after inoculation) is reported as 1.6 · 10^5 germs/ml and the “Germs Number/ml after 7 d” value ([2]; 7 d after inoculation) is reported as 1.0 · 10^5 germs/ml. The “Germs Number/ml after 14 d” value ([2]; 14 d after inoculation) was 2.2 · 10^4 germs/ml, the “Germs Number/ml after Start” value ([2]; t=0) was 4.5 · 10^5 germs/ml and the “Germs Number/ml after 24 h” value ([3]; 24 h after inoculation) was 8.3 · 10^2 germs/ml. The “Germs Number/ml after 48 h” value ([3]; 48 h after inoculation) was 0 germs/ml, the “Germs Number/ml after 7 d” value ([3]; 7 d after inoculation) was 0 germs/ml and the “Germs Number/ml after 14 d” value ([3]; 14 d after inoculation) was 0 germs/ml. For the same molecule, the “Germs Number/ml after Start” value ([3]; t=0) was 9.0 · 10^2 germs/ml, the “Germs Number/ml after 24 h” value (Escheria coli ATCC8739; 24 h after inoculation) was 0 germs/ml and the “Germs Number/ml after 48 h” value (Escheria coli ATCC8739; 48 h after inoculation) was 0 germs/ml. The “Germs Number/ml after 7 d” value (Escheria coli ATCC8739; 7 d after inoculation) was 0 germs/ml, the “Germs Number/ml after 14 d” value (Escheria coli ATCC8739; 14 d after inoculation) was 0 germs/ml and the “Germs Number/ml after Start” value (Escheria coli ATCC8739; t=0) was 2.0 · 10^6 germs/ml. The “Germs Number/ml after 24 h” value ([4]; 24 h after inoculation) was 0 germs/ml, the “Germs Number/ml after 48 h” value ([4]; 48 h after inoculation) was 0 germs/ml and the “Germs Number/ml after 7 d” value ([4]; 7 d after inoculation) was 0 germs/ml. For the same molecule, the “Germs Number/ml after 14 d” value ([4]; 14 d after inoculation) was 0 germs/ml, the “Germs Number/ml after Start” value ([4]; t=0) was 2.2 · 10^5 germs/ml and the “Germs Number/ml after 24 h” value ([5]; 24 h after inoculation) was 0 germs/ml. The “Germs Number/ml after 48 h” value ([5]; 48 h after inoculation) was 0 germs/ml, the “Germs Number/ml after 14 d” value ([5]; 14 d after inoculation) was 0 germs/ml and the “Germs Number/ml after Start” value ([5]; t=0) was 2.7 · 10^6 germs/ml.
